Measurements: PubChem BioAssay AID1963425 (Molecular Pharmacology Branch, DTP, NCI, 2024)
pIC50: −log10 of the molar value.

Test system: 323965-272-R-J2-PDC complex spheroid growth, % test/control
Experiment: Anticancer human tumor 323965-272-R-J2-PDC patient-derived pancreatic carcinoma cell line growth inhibition [Asc]
Details: for pIC50: curve of first compound; for viability, T/C: stronger effect = lower value; active = viability on the fitted dose curve at most 10% of control; inactive = the rest
Procedure: Multicellular complex tumor spheroid response to apoptosis pathway targeting inhibitors Alrizomadlin, Pelcitoclax, and Dasminapant in combination with a variety of drugs and investigational agents in selected tumor cell lines
The MDM2 inhibitor alrizomadlin, the Bcl-2/Bcl-xL inhibitor pelcitoclax, and the IAPs inhibitor dasminapant were evaluated both individually and in combination with standard of care and investigational anticancer small molecules within a complex spheroid model of solid tumors. . Complex spheroids include a stromal component modeled by human endothelial cells (HUVEC) and fibroblasts modeled by human mesenchymal stem cells (MSCs). The concentration ranges selected for each drug and investigational agent were based upon clinically achievable concentrations if the clinical Cmax of the agent was known.
Compounds. The drugs and investigational agents: alrizomadlin (APG-115; NSC831270), pelcitoclax (APG-1252; NSC835773), dasminapant (APG-1387;NSC834197), TAK-243 (NSC785004), copanlisib (NSC809693), olaparib (NSC753686), talazoparib (NSC767125), cobimetinib (NSC 768068), eltanexor (KPT-8602, NSC 794443), abemaciclib (NSC 768073), sotorasib (NSC818433), adagrasib (NSC 831453), MRTX-1133 (NSC 836407), Iadademestat (ORY1001, NSC 806812), and RMC-4630 (NSC839698), were obtained from the NCI Developmental Therapeutics Program Chemical Repository. The FDA-approved anticancer drug set is available from the Developmental Therapeutics Program at https://dtp.cancer.gov/organization/dscb/obtaining/available plates.htm. […] The stock solutions were prepared in dimethyl sulfoxide (DMSO, Sigma-Aldrich, St. Louis, MO, cat. D2650) at 800-fold the tested concentration and stored at -70 degrees C prior to their use. All drugs and investigational agents were tested over a range starting from a high concentration at or near the clinical Cmax and decreasing in half-log increments. If the clinical Cmax for an agent had not been determined, the highest concentration tested was 10 microM.
The patient-derived cancer (PDC) cell lines include five colon adenocarcinomas: 186277-243-T-J2-PDC, 616215-338-R-J1-PDC, 439559-082-T-J2-PDC, 463943-066-T-J2-PDC, and 519858-162-T-J1-PDC; three pancreatic carcinomas: 323965-272-R-J2-PDC, 521955-158-R6-J3-PDC, and 521955-158-R2-J5-PDC; two uterine sarcomas: 327498-152-R-J2-PDC and 993429-296-R-J1-PDC; two rhabdomyosarcomas: 755483-174-R-J1-PDC and 772245-204-R-J1-PDC; two soft tissue sarcomas: 126254-015-R-J1-PDC and 494315-158-R-J1-PDC; two malignant fibrous histiocytomas: 317291-083-R-J1-PDC and 596521-263-R-J1-PDC; two breast carcinomas: 171881-019-R-J1-PDC and 885512-296-R-J2-PDC; and one ovarian carcinoma: 6556581-035-R-J-PDC were obtained from the NCI PDMR, (https://pdmr.cancer.gov). The established cell lines HSSY-2 synovial sarcoma (RRID:CVCL 8719), SYO-1 synovial sarcoma (RRID:CVCL_7146), MPNST malignant peripheral neural sheath tumor were obtained from the Sloan Kettering Institute. The following established cell lines were purchased from the American Type Culture Collection (ATCC, Manassas, VA), Sor the received from the NCI repository:, PANC-1 pancreatic carcinoma (CRL-1469, RRID:CVCL_0480), OVCAR-5 ovarian carcinoma (RRID:CVCL_1628), OVCAR-8 ovarian carcinoma (RRID:CVCL_1629), , MCF-7 breast carcinoma (CRL-12584, RRID:CVCL_0031), MDA-MB-231 breast carcinoma (CRL-12532, RRID:CVCL_0062), NCI-H1876 small cell lung carcinoma (CRL-5902, RRID:CVCL_1503), NCI-H510A small cell lung carcinoma (HTB-184, RRID:CVCL_1565), NCI-H1417 (CRL-5869, RRID:CVCL_1469), and NCI-H196 small cell lung carcinoma (CRL-5823, RRID:CVCL_1509). Dr. Peter Houghton (Greehey Children's Cancer Research Institute, University of Texas Health Science Center, San Antonio, TX) provided Rh-18 rhabdomyosarcoma (RRID:CVCL_1659). Pooled donor human umbilical vein endothelial cells (HUVEC, Lonza, cat. CC-2519) and human mesenchymal stem cells (hMSC, Lonza, cat. PT-2501) were purchased from Lonza (Walkersville, MD).
Cell Culture. […]

[1] = second compound 0.00949 µM, first compound 0.00316 µM
[2] = second compound 0.00949 µM, first compound 0.01 µM
[3] = second compound 0.00949 µM, first compound 0.0316 µM
[4] = second compound 0.00949 µM, first compound 0.1 µM
[5] = second compound 0.00949 µM, first compound 0.316 µM
[6] = second compound 0.00949 µM, first compound 1 µM
[7] = second compound 0.03 µM, first compound 0.00316 µM
[8] = second compound 0.03 µM, first compound 0.01 µM
[9] = second compound 0.03 µM, first compound 0.0316 µM
[10] = second compound 0.03 µM, first compound 0.1 µM
[11] = second compound 0.03 µM, first compound 0.316 µM
[12] = second compound 0.03 µM, first compound 1 µM
[13] = second compound 0.0949 µM, first compound 0.00316 µM
[14] = second compound 0.0949 µM, first compound 0.01 µM
[15] = second compound 0.0949 µM, first compound 0.0316 µM
[16] = second compound 0.0949 µM, first compound 0.1 µM
[17] = second compound 0.0949 µM, first compound 0.316 µM
[18] = second compound 0.0949 µM, first compound 1 µM
[19] = second compound 0.3 µM, first compound 0.00316 µM
[20] = second compound 0.3 µM, first compound 0.01 µM
[21] = second compound 0.3 µM, first compound 0.0316 µM
[22] = second compound 0.3 µM, first compound 0.1 µM
[23] = second compound 0.3 µM, first compound 0.316 µM
[24] = second compound 0.3 µM, first compound 1 µM
[25] = second compound 0.949 µM, first compound 0.00316 µM
[26] = second compound 0.949 µM, first compound 0.01 µM
[27] = second compound 0.949 µM, first compound 0.0316 µM
[28] = second compound 0.949 µM, first compound 0.1 µM
[29] = second compound 0.949 µM, first compound 0.316 µM
[30] = second compound 0.949 µM, first compound 1 µM
[31] = second compound 3 µM, first compound 0.00316 µM
[32] = second compound 3 µM, first compound 0.01 µM
[33] = second compound 3 µM, first compound 0.0316 µM
[34] = second compound 3 µM, first compound 0.1 µM
[35] = second compound 3 µM, first compound 0.316 µM
[36] = second compound 3 µM, first compound 1 µM
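Note: compound exposure lasted 7 days starting three days after spheroid seeding.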
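Throughout, for viability, T/C: 100% = DMSO vehicle control wells with viability set relative to vehicle.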

CCN1CCN(Cc2ccc(Nc3ncc(F)c(-c4cc(F)c5nc(C)n(C(C)C)c5c4)n3)nc2)CC1 + CCN1C(C(=O)NC23CCC(C(=O)O)(CC2)CC3)C(c2cccc(Cl)c2F)C2(C(=O)Nc3cc(Cl)ccc32)C12CCCCC2
< 6.00: pIC50 (second compound 0.00949 µM) | pIC50 (second compound 0.03 µM) | pIC50 (second compound 0.0949 µM) | pIC50 (second compound 0.3 µM) | pIC50 (second compound 0.949 µM) | pIC50 (second compound 3 µM)
inactive: viability, T/C [1] 107% | viability, T/C [2] 107% | viability, T/C [3] 105% | viability, T/C [4] 86.2% | viability, T/C [5] 68.7% | viability, T/C [6] 77% | viability, T/C [7] 103% | viability, T/C [8] 104% | viability, T/C [9] 96.7% | viability, T/C [10] 84.5% | viability, T/C [11] 69.5% | viability, T/C [12] 65.8% | viability, T/C [13] 118% | viability, T/C [14] 112% | viability, T/C [15] 92.2% | viability, T/C [16] 80% | viability, T/C [17] 70.3% | viability, T/C [18] 65.2% | viability, T/C [19] 111% | viability, T/C [20] 104% | viability, T/C [21] 96.6% | viability, T/C [22] 78.9% | viability, T/C [23] 85.1% | viability, T/C [24] 77.1% | viability, T/C [25] 99.8% | viability, T/C [26] 107% | viability, T/C [27] 95.9% | viability, T/C [28] 85.8% | viability, T/C [29] 73.1% | viability, T/C [30] 77.5% | viability, T/C [31] 101% | viability, T/C [32] 115% | viability, T/C [33] 97% | viability, T/C [34] 77% | viability, T/C [35] 78% | viability, T/C [36] 78.9%

O=C(c1ccc(F)c(F)c1Nc1ccc(I)cc1F)N1CC(O)([C@@H]2CCCCN2)C1 + CCN1C(C(=O)NC23CCC(C(=O)O)(CC2)CC3)C(c2cccc(Cl)c2F)C2(C(=O)Nc3cc(Cl)ccc32)C12CCCCC2
7.09: pIC50 (second compound 3 µM)
6.92: pIC50 (second compound 0.00949 µM) | pIC50 (second compound 0.949 µM)
6.82: pIC50 (second compound 0.03 µM)
6.90: pIC50 (second compound 0.0949 µM)
6.87: pIC50 (second compound 0.3 µM)
inactive: viability, T/C [1] 110% | viability, T/C [2] 88.1% | viability, T/C [3] 75% | viability, T/C [4] 52.1% | viability, T/C [5] 32.1% | viability, T/C [6] 19.9% | viability, T/C [7] 113% | viability, T/C [8] 92% | viability, T/C [9] 86.3% | viability, T/C [10] 57.3% | viability, T/C [11] 33.6% | viability, T/C [12] 19.4% | viability, T/C [13] 103% | viability, T/C [14] 89.5% | viability, T/C [15] 75.2% | viability, T/C [16] 55.3% | viability, T/C [17] 32.7% | viability, T/C [18] 19.1% | viability, T/C [19] 93.7% | viability, T/C [20] 106% | viability, T/C [21] 75.7% | viability, T/C [22] 54.6% | viability, T/C [23] 37.1% | viability, T/C [24] 19.2% | viability, T/C [25] 96.3% | viability, T/C [26] 95.9% | viability, T/C [27] 72.9% | viability, T/C [28] 54% | viability, T/C [29] 33.4% | viability, T/C [30] 19.7% | viability, T/C [31] 97.6% | viability, T/C [32] 85.2% | viability, T/C [33] 65.6% | viability, T/C [34] 46.7% | viability, T/C [35] 29.6% | viability, T/C [36] 18.3%
